{"source": "ChEMBL document CHEMBL1949598", "about": "“Synthesis, cytostatic activity and ADME properties of C-5 substituted and N-acyclic pyrimidine derivatives” (Bioorg Med Chem Lett, 2012)", "key": {"MCF7 [1]": {"tested_on": "MCF7", "assay": "Cytotoxicity against human MCF7 cells up to 100 uM after 72 hrs by MTT assay", "type": "functional, cell-based"}, "HCT-116 [2]": {"tested_on": "HCT-116", "assay": "Cytotoxicity against human HCT116 cells up to 100 uM after 72 hrs by MTT assay", "type": "functional, cell-based"}, "NCI-H460 [3]": {"tested_on": "NCI-H460", "assay": "Cytotoxicity against human H460 cells up to 100 uM after 72 hrs by MTT assay", "type": "functional, cell-based"}, "NCI-H460 [4]": {"tested_on": "NCI-H460", "assay": "Cytotoxicity against human H460 cells after 72 hrs by MTT assay", "type": "functional, cell-based", "conditions": "NCI-H460, 72 h"}, "MCF7 [5]": {"tested_on": "MCF7", "assay": "cells", "conditions": "Homo sapiens, MCF7, 72 h", "description": "Cytotoxicity against human MCF7 cells after 72 hrs by MTT assay"}, "HCT-116 [6]": {"tested_on": "HCT-116", "assay": "cells", "conditions": "Homo sapiens, HCT-116, 72 h"}, "MDR1 (P-gp), human [7]": {"tested_on": "MDR1 (P-gp), human", "assay": "Apparent permeability from apical to basolateral side in MDCK2 cells expressing human MDR1 at 10 uM after 60 mins", "type": "ADME, cell-based, Canis lupus familiaris, MDCK-II", "conditions": "dog, MDCK-MDR1"}, "MDR1 (P-gp), human [8]": {"tested_on": "MDR1 (P-gp), human", "assay": "Apparent permeability from basolateral to apical side in MDCK2 cells expressing human MDR1 at 10 uM after 60 mins", "type": "ADME, cell-based, Canis lupus familiaris, MDCK-II", "conditions": "dog, MDCK-MDR1"}, "MDR1 (P-gp), human [9]": {"tested_on": "MDR1 (P-gp), human", "assay": "Efflux ratio of apparent permeability from apical to basolateral over basolateral to apical side of MDCK2 cells expressing human MDR1 gene", "type": "ADME, cell-based, Canis lupus familiaris, MDCK-II", "conditions": "dog, MDCK-MDR1"}, "[10]": {"assay": "Efflux ratio of apparent permeability from apical to basolateral side over basolateral to apical side in MDCK2 cells expressing human MDR1 in presence of P-gp inhibitor elacridar", "type": "ADME, cell-based, Canis lupus familiaris, MDCK-II", "conditions": "dog, mdck-ii"}, "[11]": {"assay": "Metabolic stability in human plasma assessed as compound remaining at 5 uM after 24 hrs by LC/MS/MS analysis", "type": "ADME, cell-free", "conditions": "read-out: Stability"}, "[12]": {"assay": "Metabolic stability in rat plasma assessed as compound remaining at 5 uM after 24 hrs by LC/MS/MS analysis", "type": "ADME, cell-free", "conditions": "read-out: Stability"}, "[13]": {"assay": "Metabolic stability in mouse plasma assessed as compound remaining at 5 uM after 24 hrs by LC/MS/MS analysis", "type": "ADME, cell-free", "conditions": "read-out: Stability"}, "[14]": {"assay": "Half life in human plasma at 5 uM", "type": "ADME"}, "[15]": {"assay": "Half life in rat plasma at 5 uM", "type": "ADME"}, "[16]": {"assay": "Half life in mouse plasma at 5 uM", "type": "ADME"}, "[17]": {"assay": "Metabolic stability in human liver microsomes assessed as compound remaining at 1 uM after 60 mins by LC/MS/MS analysis", "type": "ADME, Microsome", "conditions": "read-out: Stability"}, "[18]": {"assay": "Metabolic stability in rat liver microsomes assessed as compound remaining at 1 uM after 60 mins by LC/MS/MS analysis", "type": "ADME, Microsome", "conditions": "read-out: Stability"}, "[19]": {"assay": "Metabolic stability in mouse liver microsomes assessed as compound remaining at 1 uM after 60 mins by LC/MS/MS analysis", "type": "ADME, Microsome", "conditions": "read-out: Stability"}, "[20]": {"assay": "Half life in rat liver microsomes at 1 uM"}, "[21]": {"assay": "Half life in human liver microsomes at 1 uM"}, "[22]": {"assay": "Half life in mouse liver microsomes at 1 uM"}}, "note": "Calls of active or inactive are those of the source. The rule behind the calls is not given here."}
{"smiles": "COc1nc(Cl)ncc1CCO", "values": [{"measurement": "growth inhibition (GI)", "setting": "MCF7 [1]", "value": "inactive"}, {"measurement": "growth inhibition (GI)", "setting": "HCT-116 [2]", "value": "inactive"}, {"measurement": "growth inhibition (GI)", "setting": "NCI-H460 [3]", "value": "inactive"}]}
{"smiles": "COCn1cc(CCO)c(=O)n(COC)c1=O", "values": [{"measurement": "growth inhibition (GI)", "setting": "MCF7 [1]", "value": "inactive"}, {"measurement": "growth inhibition (GI)", "setting": "HCT-116 [2]", "value": "inactive"}, {"measurement": "growth inhibition (GI)", "setting": "NCI-H460 [3]", "value": "inactive"}]}
{"smiles": "CC(=O)OCCc1c[nH]c(=O)[nH]c1=O", "values": [{"measurement": "growth inhibition (GI)", "setting": "MCF7 [1]", "value": "inactive"}, {"measurement": "growth inhibition (GI)", "setting": "HCT-116 [2]", "value": "inactive"}, {"measurement": "growth inhibition (GI)", "setting": "NCI-H460 [3]", "value": "inactive"}]}
{"smiles": "COCOCCc1cn(COC)c(=O)nc1OC", "values": [{"measurement": "growth inhibition (GI)", "setting": "MCF7 [1]", "value": "inactive"}, {"measurement": "growth inhibition (GI)", "setting": "HCT-116 [2]", "value": "inactive"}, {"measurement": "growth inhibition (GI)", "setting": "NCI-H460 [3]", "value": "inactive"}]}
{"smiles": "O=c1[nH]cc(F)c(=O)[nH]1", "note": "[FLUOROURACIL]", "values": [{"measurement": "IC50", "setting": "NCI-H460 [4]", "value": 3, "unit": "µM"}, {"measurement": "IC50", "setting": "MCF7 [5]", "value": 14, "unit": "µM"}]}
{"smiles": "COCOCCc1cnc(OC)nc1OC", "values": [{"measurement": "growth inhibition (GI)", "setting": "MCF7 [1]", "value": "Active"}, {"measurement": "growth inhibition (GI)", "setting": "HCT-116 [2]", "value": "Active"}, {"measurement": "growth inhibition (GI)", "setting": "NCI-H460 [3]", "value": "Active"}, {"measurement": "IC50", "setting": "NCI-H460 [4]", "value": "> 100", "unit": "µM"}, {"measurement": "IC50", "setting": "MCF7 [5]", "value": "> 100", "unit": "µM"}, {"measurement": "IC50", "setting": "HCT-116 [6]", "value": 75, "unit": "µM"}]}
{"smiles": "Clc1ncc2c(n1)OCC2", "values": [{"measurement": "growth inhibition (GI)", "setting": "MCF7 [1]", "value": "Active"}, {"measurement": "growth inhibition (GI)", "setting": "HCT-116 [2]", "value": "Active"}, {"measurement": "growth inhibition (GI)", "setting": "NCI-H460 [3]", "value": "Active"}, {"measurement": "IC50", "setting": "NCI-H460 [4]", "value": 22, "unit": "µM"}, {"measurement": "IC50", "setting": "MCF7 [5]", "value": 45, "unit": "µM"}, {"measurement": "IC50", "setting": "HCT-116 [6]", "value": 13, "unit": "µM"}]}
{"smiles": "COCn1c(=O)[nH]cc(CCOC(C)=O)c1=O", "values": [{"measurement": "growth inhibition (GI)", "setting": "MCF7 [1]", "value": "inactive"}, {"measurement": "growth inhibition (GI)", "setting": "HCT-116 [2]", "value": "inactive"}, {"measurement": "growth inhibition (GI)", "setting": "NCI-H460 [3]", "value": "inactive"}]}
{"smiles": "CC(=O)OCCc1cnc(Cl)nc1Cl", "values": [{"measurement": "growth inhibition (GI)", "setting": "MCF7 [1]", "value": "Active"}, {"measurement": "growth inhibition (GI)", "setting": "HCT-116 [2]", "value": "Active"}, {"measurement": "growth inhibition (GI)", "setting": "NCI-H460 [3]", "value": "Active"}, {"measurement": "IC50", "setting": "NCI-H460 [4]", "value": 31, "unit": "µM"}, {"measurement": "IC50", "setting": "MCF7 [5]", "value": 30, "unit": "µM"}, {"measurement": "IC50", "setting": "HCT-116 [6]", "value": 29, "unit": "µM"}]}
{"smiles": "Cc1nc(Cl)nc(Cl)c1CCCl", "values": [{"measurement": "Papp A→B at 1 h, 10 µM", "setting": "MDR1 (P-gp), human [7]", "value": 35.8, "unit": "×10⁻⁶ cm/s"}, {"measurement": "Papp B→A at 1 h, 10 µM", "setting": "MDR1 (P-gp), human [8]", "value": 20.9, "unit": "×10⁻⁶ cm/s"}, {"measurement": "efflux ratio", "setting": "MDR1 (P-gp), human [9]", "value": 0.6}, {"measurement": "Ratio", "setting": "[10]", "value": 1.4}, {"measurement": "remaining at 24 h, 5 µM", "setting": "[11]", "value": 20, "unit": "%"}, {"measurement": "remaining at 24 h, 5 µM", "setting": "[12]", "value": 3, "unit": "%"}, {"measurement": "remaining at 24 h, 5 µM", "setting": "[13]", "value": 22, "unit": "%"}, {"measurement": "half-life at 5 µM", "setting": "[14]", "value": 10, "unit": "h"}, {"measurement": "half-life at 5 µM", "setting": "[15]", "value": 3.07, "unit": "h"}, {"measurement": "half-life at 5 µM", "setting": "[16]", "value": 7.97, "unit": "h"}, {"measurement": "remaining at 1 h, 1 µM", "setting": "[17]", "value": 76, "unit": "%"}, {"measurement": "remaining at 1 h, 1 µM", "setting": "[18]", "value": 74, "unit": "%"}, {"measurement": "remaining at 1 h, 1 µM", "setting": "[19]", "value": 41, "unit": "%"}, {"measurement": "half-life at 1 µM", "setting": "[20]", "value": 2.23, "unit": "h"}, {"measurement": "half-life at 1 µM", "setting": "[21]", "value": 2.42, "unit": "h"}, {"measurement": "half-life at 1 µM", "setting": "[22]", "value": 0.767, "unit": "h"}]}
{"smiles": "COc1nc(Cl)ncc1CCF", "values": [{"measurement": "growth inhibition (GI)", "setting": "MCF7 [1]", "value": "inactive"}, {"measurement": "growth inhibition (GI)", "setting": "HCT-116 [2]", "value": "inactive"}, {"measurement": "growth inhibition (GI)", "setting": "NCI-H460 [3]", "value": "inactive"}]}
